Five molecules from patent US4278676A, “Heterocyclic compounds” (H. Lundbeck & Co. A/S, priority 1977, dated 1981) can be followed below.

Data set [1] deals with methylphenidate-induced gnawing. The data set can be described thus: Potentiation of methylphenidate-induced gnawing. Format: in vivo. Conditions: Mus musculus, read-out: ED50 (the dose which causes potentiation in 50% of the animals), mice. The source says:
(a) Potentiation of methylphenidate-induced gnawing (Scheel-Kruger et al.: Muscimol differentially facilitates stereotypy but antagonizes motility induced by dopaminergic drugs. A complex GABA-DOPAMINE interaction. Life Sciences, 1978, Vol. 22, 75-84).

The next data set is described as follows: Acute toxicity (mice). The conditions noted are these: mouse, in vivo.
The test system of data set [2] is substantia nigra. The data set can be described thus: Unilateral injections into substantia nigra in rats. Format: in vivo, rat. The protocol:
(b) Unilateral injections. 0.1 and 0.5 μg of Ia,Hbr have been injected.

For data set [3], the system named is morphine-induced motility. Nature of the data set: Antagonism of morphine-induced motility. Format: in vivo. Conditions: Mus musculus; mice; read-out: MED (minimum effective dose), morphine-induced motility. From the text: (b) Antagonism of morphine-induced motility (Christensen et al.: Muscimol antagonizes morphine hypermotility without potentiation of analgesia. European J. Pharmacol., 1978, 48, 459-462).

Data set [4] relates to isoniazide-induced convulsions. Nature of the data set: Antagonism of isoniazide-induced convulsions. Conditions: Mus musculus, ip; mice, test compound i.p., isoniazide 300 mg/kg s.c.; read-out: MED (minimum effective dose), isoniazide-induced convulsions. Format: in vivo. The protocol: (c) Antagonism of isoniazide-induced convulsions (Modification (mice, two times lower concentration of isoniazide) of Mao et al.: Evidence for an involvement of GABA in the mediation of cerebellar c-GMP decrease and the anticonvulsant action of diazepam. Naunyn-Smiedeberg's Arch. Pharmacol. 1975, 289, 369-378).
Conditions and procedure for isoniazide antagonism test:
Isoniazide 300 mg/kg s.c.
Five mice are used for each dose level. Immediately after administration of test substance, isoniazide 300 mg/kg is injected s.c. This dose of isoniazide induces intermittent tonic clonic seizures within 60 minutes. The calculations are performed as on "on line procedure" on the EDP-terminal.

In data set [5] the test system is substantia nigra. The data set can be described thus: Bilateral injections into substantia nigra in rats. Format: in vivo, rat. The protocol:
(a) Bilateral injections. 0.1, 0.5, and 1.0 μg of Ia,HBr have been injected.

Data set [6] relates to lumbar dorsal horn interneurones and Renshaw cells. Nature of the data set: Microelectrophoretic experiments on central neurones of anaesthetized cats. Format: in vivo. The conditions noted are these: bicuculline methochloride (BMC), cat central neurones. As for the experimental part: In order to study the interactions of the compound Ia with the central GABA receptors in vivo, the compound Ia was tested in microelectrophoretic experiments. Experiments were performed on lumbar dorsal horn interneurones and Renshaw cells of cats anaesthetized with pentobarbitone sodium. The approximate potency of the depressant actions of the compound was assessed relative to that of GABA on the basis of electrophoretic currents required to produce equal and submaximal inhibitions of the firing of the central neurones. The inhibitory action of Ia on central neurones was antagonized by the specific GABA antagonist bicuculline methochloride (BMC).

Data set [7] concerns the target GABA:2-oxo-glutarate aminotransferase (Homo sapiens, UniProt P80404). Nature of the data set: Interaction with GABA metabolizing enzyme (aminotransferase). Format: biochemical. The conditions noted are these: concentrations of 10^-3 M.
For another data set, the system named is GABA uptake system. The data set can be described thus: Interaction with GABA uptake system. On the set-up: dose or concentration left out as unconfirmed. Format: biochemical.
Data set [8] has as its system L-glutamate 1-carboxylase. The data set can be described thus: Interaction with GABA metabolizing enzyme (carboxylase). Conditions: concentrations of 10^-3 M. Format: biochemical.
Setting [9] is: iv, read-out: Acute Toxicity (Mice) LD50 i.v.
The mark [10] stands for this setting: po, read-out: Acute Toxicity (Mice) LD50 p.o.

Like-named read-outs stand apart in the source and are kept apart here.

Chain of GABA:2-oxo-glutarate aminotransferase (P80404 29-500): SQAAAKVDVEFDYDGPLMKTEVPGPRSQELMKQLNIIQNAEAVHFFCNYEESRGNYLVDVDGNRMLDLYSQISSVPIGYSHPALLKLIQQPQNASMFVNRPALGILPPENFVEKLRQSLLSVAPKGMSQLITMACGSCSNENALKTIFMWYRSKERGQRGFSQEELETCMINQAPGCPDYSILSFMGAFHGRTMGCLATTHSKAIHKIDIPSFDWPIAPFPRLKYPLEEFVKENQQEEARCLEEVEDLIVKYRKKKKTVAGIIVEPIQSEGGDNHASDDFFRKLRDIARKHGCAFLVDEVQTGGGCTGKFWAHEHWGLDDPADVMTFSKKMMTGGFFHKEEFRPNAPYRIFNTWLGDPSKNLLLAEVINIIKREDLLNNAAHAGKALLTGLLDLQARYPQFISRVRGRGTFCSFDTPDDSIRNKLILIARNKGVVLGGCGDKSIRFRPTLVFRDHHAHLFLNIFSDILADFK

For the molecule `Oc1noc2c1CCNC2` [Compound Ia,HBr, 3-Hydroxy-4,5,5,7-tetrahydroisoxazolo[5,4-pyridinium bromide], the ED50 in [1] was 3 mg/kg. The LD50 in the data set “Acute toxicity (mice)” (setting [9]) was 80 mg/kg; in “Acute toxicity (mice)” (setting [10]), more than 320 mg/kg. Further, the “Behaviour after unilateral injection into substantia nigra” value in the data set with substantia nigra [2] (0.1 and 0.5 μg injected) is “strong and prolonged contralateral turning”. Besides, the values for the minimal effective dose in [3] and in data set [4] were 1 mg/kg and 1.3 mg/kg, respectively. For the same molecule, in the data set on substantia nigra [5] (0.1, 0.5 and 1.0 μg injected), the “Behaviour after bilateral injection into substantia nigra” value was “pronounced stereotypic behaviour”.
On to `NCCCC(=O)O` [GABA, gamma-aminobutyric acid, reference compound], for which the “Reversible antagonism by BMC” value in [6] was “yes”.
`Oc1noc2c1CCNC2` [Ia, 4,5,6,7-Tetrahydroisoxazolo[5,4-c]pyridin-3-ol zwitterion]: the “Interaction with GABA:2-oxo-glutarate aminotransferase” value in data set [7] was “did not interact”. Moreover, the “Potency compared with muscimol, unilateral injection” value with substantia nigra [2] (substantia nigra) was “weaker than muscimol”. Further, the “Interaction with the GABA uptake system” value in the data set on GABA uptake system is recorded as “did not interact”. Also, in the data set with substantia nigra [5] (substantia nigra), the “Potency compared with muscimol, bilateral injection” value was “weaker than muscimol”. Also, the “Reversible antagonism by BMC” value in data set [6] was “yes”. The “Interaction with L-glutamate 1-carboxylase” value in data set [8] was “did not interact”.
Consider `NCc1cc(=O)[nH]o1` [Muscimol, muscimol], for which the LD50 in “Acute toxicity (mice)” (ip, read-out: Acute Toxicity (Mice) LD50 i.p.) was 12 mg/kg; in “Acute toxicity (mice)” (setting [9]), 7 mg/kg; in “Acute toxicity (mice)” (setting [10]), 22 mg/kg.
Turning to `NCc1cc(=O)[nH]o1` [Muscimol,HBr, reference compound], the ED50 in [1] was determined as 0.7 mg/kg. Also, the minimal effective dose in data set [3] and in [4] was 0.6 mg/kg throughout.

One may read the ED50 as the midpoint of the dose-response relation. By LD50 is commonly meant the dose at which mortality reaches 50%.
